According to patent publication EP4786487A1, “PEPTIDE” (Peptidream Inc, priority 2023, dated 2025):
Starred links: 1 amine or outer side, 2 acyl side, 3 side chain; linkers in the order of their positions; H or OH if unused. Positions of bridges follow the written chain, without caps; N, C: chain ends. Non-standard residues stand in square brackets, D forms with d. Residues, ends and D or L forms follow the SMILES beside them. Phe(3-OCH2COOH) = N[C@@H](Cc1cccc(OCC(=O)O)c1)C(=O)O; Phe(4-COOH) = N[C@@H](Cc1ccc(C(=O)O)cc1)C(=O)O; Gly(N(CH2)3COOH) = O=C(O)CCCNCC(=O)O; X1 = CCCCCCC[C@H](N[*:1])C(=O)[*:2]; NMeF = CN[C@@H](Cc1ccccc1)C(=O)O; NMeA = CN[C@@H](C)C(=O)O

Experiments:
[1] = test system: Myostatin; test: Reporter gene assay for myostatin signaling in HEK-Blue TGF-β Cells, myostatin; format: cell-based
Procedure: (§1) In this Example, the in vitro activity of the peptide Myostatin_99_v145 (SEQ ID NO: 30) was evaluated using a reporter gene assay for myostatin signaling.
(§2) HEK-Blue (trademark) TGF-β Cells (hkb-tgfbv2, InvivoGen) were cultured in DMEM High glucose GlutaMAX (10569010, Thermo) containing 10% FBS (Heat-inactivated FBS QUALIFIED, 10270-106, Gibco), […] Normocin (ant-nr-05, InvivoGen), […] Zeocin (ant-zn-05, InvivoGen), and 50 µg/mL Gentamicin (11980-14, Nacalai Tesque). The cultured HEK-Blue (trademark) TGF-β Cells were suspended in an assay medium containing DMEM High glucose GlutaMAX, 50 µg/mL Gentamicin, and 1% bovine serum albumin (A7030, Sigma). The cells were seeded at 4 × 10^4 cells/well onto a 96-well plate (356461, Corning), namely BioCoat poly-D-lysine multi-well plate, and allowed to stand for 30 min.
(§3) A 4-fold dilution series of the peptide, namely Myostatin_99_v145 (SEQ ID NO: 30), synthesized according to Example 1, the final concentration of which was from 0.006 nmol/L up to a maximum concentration of 0.1 µmol/L for the myostatin inhibitory activity test, was added to a 96-well U-bottom Non-Binding MicroPlate (650901, Greiner). For the GDF-11 or activin A inhibitory activity test, a 4-fold dilution series, the final concentration of which was from 0.12 nmol/L to a maximum concentration of 2 µmol/L, was added to a 96-well U-bottom Non-Binding MicroPlate (650901, Greiner).
(§4) Subsequently, myostatin (788-G8/CF, R&D systems), GDF-11 (1958-GD-G8/CF, R&D systems), or activin A (338-AC-010/CF, R&D systems) was each added at a final concentration of 3 ng/mL. The plate was sealed with Parafilm, and incubated in a CO2 incubator (37°C, 5% CO2) for 30 min. The samples were added at 50 µL/well to a plate containing HEK-Blue (trademark) TGF-β Cells, and incubated in a CO2 incubator (37°C, 5% CO2) for 24 hours.
(§5) To each well of a UV-Star µClear 96-well (655801, Greiner), 180 µL of Detection buffer (prepared by diluting, with 17.64 mL of distilled water, 180 µL of QUANTI-Blue buffer and 180 µL of QUANTI-Blue solution) was dispensed. Here, 20 µL of the supernatant of the culture medium was transferred to the above Detection buffer and stirred with a shaker for 1 min. The plate was covered and incubated in a CO2 incubator for 3 to 5 hours, and absorbance was measured (Envision 2104, PerkinElmer, 620 nm/bp 40 nm). Based on the absorbance, IC50 values of the peptide were calculated using software (Prism 9, GraphPad).

[2] = molecular target: T1, Myostatin (Homo sapiens, UniProt O14793); test: as above; format: cell-based; conditions: myostatin 3 ng/mL
T1 construct: active myostatin (also called mature myostatin) is a homodimer consisting of two C-terminal growth factor domains; purchased R&D systems 788-G8/CF
T1 sequence (O14793 267-375): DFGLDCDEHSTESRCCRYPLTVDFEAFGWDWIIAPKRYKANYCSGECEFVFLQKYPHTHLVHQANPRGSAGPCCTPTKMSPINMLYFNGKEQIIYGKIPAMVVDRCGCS
Procedure: as §1, §2, §3, §4, §5

[3] = molecular target: T2, activin A (Homo sapiens, UniProt P08476); test: Reporter gene assay for myostatin signaling in HEK-Blue TGF-β Cells, activin A; format: cell-based; conditions: activin A 3 ng/mL
T2 construct: purchased R&D systems 338-AC-010/CF
T2 sequence (P08476 311-426): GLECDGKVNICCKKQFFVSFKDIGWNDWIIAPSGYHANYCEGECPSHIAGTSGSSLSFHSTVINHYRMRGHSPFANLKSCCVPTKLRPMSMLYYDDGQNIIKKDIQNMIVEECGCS
Procedure: as §1
as §2, with “min. […]” for “min.”
as §5, with “Here, 20 µL of the supernatant of the culture medium was transferred to the above Detection buffer and stirred with a shaker for 1 min.” left out

[4] = molecular target: T3, GDF-11 (Homo sapiens, UniProt O95390); test: Reporter gene assay for myostatin signaling in HEK-Blue TGF-β Cells, GDF-11; format: cell-based; conditions: GDF-11 3 ng/mL
T3 construct: purchased R&D systems 1958-GD-G8/CF
T3 sequence (O95390 299-407): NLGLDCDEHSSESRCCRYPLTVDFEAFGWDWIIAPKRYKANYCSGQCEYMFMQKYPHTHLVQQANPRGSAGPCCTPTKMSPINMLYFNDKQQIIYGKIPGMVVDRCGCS
Procedure: as §1
as §2, with “min. […]” for “min.”
as §5, with “Here, 20 µL of the supernatant of the culture medium was transferred to the above Detection buffer and stirred with a shaker for 1 min.” left out

[5] = test system: B10-mdx mice; test: Orally administered peptide, improvement of muscle strength in B10-mdx mice; format: in vivo, C57BL/10-mdx/Jcl mice; conditions: oral administration 65 and 200 mg/kg once a week, 4 times, after fasting; Fig. 6
Procedure: In this Example, the effect of the peptide Myostatin_99_v145 (SEQ ID NO: 30) was evaluated on improvement of muscle strength when the peptide was orally administered to DMD model mice.
B10-mdx mice were used as the DMD model mice. To five-week-old female C57BL/10-mdx/Jcl mice (CLEA Japan, Inc.; NPL 17), the peptide or solvent control (Vehicle) PBS was subcutaneously administered once a week for 4 weeks. In addition, the peptide or the solvent control, namely 30% Labrasol/PBS, was administered orally to the DMD model mice once a week after fasting in a total of 4 times.
Using a smart-type grip strength meter for rats and mice (MK-380V; Muromachi Kikai Co., Ltd.), forelimb and hindlimb grip strength measurements were performed on the day of completion of the acclimation period (grouping day; 5-week-old), and on Day 7 (6-week-old), Day 14 (7-week-old), Day 20 (8-week-old), and Day 27 (9-week-old). The measurements were conducted with individual identification numbers blinded so that the examiner was unaware of the test conditions of the mice. The grip strength was measured seven times consecutively, and the average of five points, excluding the two points: the highest and lowest values, was used as individual data.

CCCCCCC[C@@H]1NC(=O)[C@H](Cc2ccccc2)N(C)C(=O)[C@H](CCCNC(=N)N)NC(=O)[C@H](Cc2ccc(C(=O)O)cc2)NC(=O)[C@H](Cc2cccc(OCC(=O)O)c2)NC(=O)[C@H](C)N(C)C(=O)[C@H]([C@@H](C)CC)NC(=O)[C@H](Cc2ccccc2)N(C)C(=O)[C@H](Cc2ccc(O)cc2)NC(=O)[C@H](Cc2c[nH]c3ccccc23)NC(=O)[C@H](C)NC(=O)CN(CCCC(=O)O)C(=O)CSC[C@H](C(=O)O)NC(=O)[C@H](Cc2ccccc2)N(C)C(=O)[C@H](C)N(C)C1=O [Myostatin_99_v145] ({CH2CO}-[Gly(N(CH2)3COOH)]AWY[NMeF]I[NMeA][Phe(3-OCH2COOH)][Phe(4-COOH)]R[NMeF][X1][NMeA][NMeF][dC]-OH; thioether N-15)
Selectivity (GDF11/myostatin) ([1]; from IC50): 270
Selectivity (GDF11/myostatin) ([1]; from IC90): 1,088
IC50 ([2]; read-out: IC50 (nmol/L) Myostatin): 0.23 nmol/L
IC90 ([2]; read-out: IC90 (nmol/L) Myostatin): 0.64 nmol/L
IC50 ([3]; read-out: IC50 (nmol/L) Activin A): > 20000 nmol/L
IC90 ([3]; read-out: IC90 (nmol/L) Activin A): > 20000 nmol/L
IC50 ([4]; read-out: IC50 (nmol/L) GDF11): 61.2 nmol/L
IC90 ([4]; read-out: IC90 (nmol/L) GDF11): 702 nmol/L
time-course change in grip strength [5]: continuous increase in grip strength was observed in a dose-dependent manner
